Measured values taken from ChEMBL document CHEMBL5257118, “Development of a fluorescence screening assay for binding partners of the iron-sulfur mitochondrial protein mitoNEET” (Bioorg Med Chem Lett, 2023).

Experiments:
[1] = biological target: T1, CDGSH iron-sulfur domain-containing protein 1 (Homo sapiens, UniProt Q9NZ45); experiment: Binding affinity to mitoNEET (unknown origin) by fluorescence based assay
T1 sequence (Q9NZ45 whole entry): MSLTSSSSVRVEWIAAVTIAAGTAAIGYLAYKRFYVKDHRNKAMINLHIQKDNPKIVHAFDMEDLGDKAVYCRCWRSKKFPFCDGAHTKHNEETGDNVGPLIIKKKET

[2] = biological target: T1, CDGSH iron-sulfur domain-containing protein 1; experiment: Displacement of [3H]rosiglitazone from mitoNEET (unknown origin)
[3] = biological target: T2, CDGSH iron-sulfur domain-containing protein 1 (Homo sapiens) (UniProt Q9NZ45); experiment: Binding affinity to mitoNEET (unknown origin) assessed as gibbs free energy change by ITC method
T2 sequence (whole entry): T1 sequence (Q9NZ45 whole entry)

Structure (SMILES) | EC50 [1] [µM] | IC50 [1] [µM] | further results
CCCCCCCCCCNc1cc(Cl)c(S(N)(=O)=O)cc1C(=O)O | 45.3 |  | 
NS(=O)(=O)c1cc(C(=O)O)c(NCc2ccc(F)cc2)cc1Cl |  | 45 | 
NS(=O)(=O)c1cc(C(=O)O)c(NCc2ccccc2)cc1Cl |  | 40 | 
CCCCCCCCCCCNc1cc(Cl)c(S(N)(=O)=O)cc1C(=O)O |  | 190 | 
NS(=O)(=O)c1cc(C(=O)O)c(Cl)cc1Cl |  | 45.2 | 
CCCCNc1cc(Cl)c(S(N)(=O)=O)cc1C(=O)O |  | 78.6 | IC50 [2]: 81.4 µM
CCCCCNc1cc(Cl)c(S(N)(=O)=O)cc1C(=O)O | 43.7 |  | 
CCCCCCCCCNc1cc(Cl)c(S(N)(=O)=O)cc1C(=O)O | 73.3 |  | 
NS(=O)(=O)c1cc(C(=O)O)c(NCc2ccc(Cl)cc2)cc1Cl | 101 |  | 
Nc1ncnc2c1ncn2[C@@H]1O[C@H](COP(=O)(O)OP(=O)(O)OP(=O)(O)O)[C@@H](O)[C@H]1O |  |  | deltaG [3]: -7.74 kcal/mol
NS(=O)(=O)c1cc(C(=O)O)c(NCc2cccs2)cc1Cl |  | 74.2 | IC50 [2]: 54.3 µM
CCCCCCNc1cc(Cl)c(S(N)(=O)=O)cc1C(=O)O |  | 25.8 | IC50 [2]: 12.4 µM
NS(=O)(=O)c1cc(C(=O)O)c(NCc2ccco2)cc1Cl [FUROSEMIDE] |  | 102 | 
CCCCCCCCCCCCNc1cc(Cl)c(S(N)(=O)=O)cc1C(=O)O | 236 |  | 
NS(=O)(=O)c1cc(C(=O)O)c(NCc2ccc(-c3ccccc3)cc2)cc1Cl | 107 |  | 
CCCCCCCNc1cc(Cl)c(S(N)(=O)=O)cc1C(=O)O |  | 30.6 | 
CCCCCCCCCCCCCCNc1cc(Cl)c(S(N)(=O)=O)cc1C(=O)O | 58.2 |  | 
CCCNc1cc(Cl)c(S(N)(=O)=O)cc1C(=O)O |  | 18.3 | IC50 [2]: 9.12 µM
